Experimental data taken from patent publication US5331090A, “CR2 ligand compositions and methods for modulating immune cell functions” (California Institute of Biological Research, priority 1989, dated 1994).
No end group written: not given here.

The substances below were run against T1, CR2 receptor on Raji cells (Homo sapiens, UniProt P20023) (assay: Inhibition of direct binding of C3-coated Zymosan to cells (rosette count)). Settings: polypeptide zero to 200 ug in 100 ul, 37 C 30 min, amount behind the value not stated.
T1 construct: endogenous in cells; host or cells: Raji cells (human B lymphoblastoid, ATCC CCL 86)
T1 sequence (P20023 21-1033): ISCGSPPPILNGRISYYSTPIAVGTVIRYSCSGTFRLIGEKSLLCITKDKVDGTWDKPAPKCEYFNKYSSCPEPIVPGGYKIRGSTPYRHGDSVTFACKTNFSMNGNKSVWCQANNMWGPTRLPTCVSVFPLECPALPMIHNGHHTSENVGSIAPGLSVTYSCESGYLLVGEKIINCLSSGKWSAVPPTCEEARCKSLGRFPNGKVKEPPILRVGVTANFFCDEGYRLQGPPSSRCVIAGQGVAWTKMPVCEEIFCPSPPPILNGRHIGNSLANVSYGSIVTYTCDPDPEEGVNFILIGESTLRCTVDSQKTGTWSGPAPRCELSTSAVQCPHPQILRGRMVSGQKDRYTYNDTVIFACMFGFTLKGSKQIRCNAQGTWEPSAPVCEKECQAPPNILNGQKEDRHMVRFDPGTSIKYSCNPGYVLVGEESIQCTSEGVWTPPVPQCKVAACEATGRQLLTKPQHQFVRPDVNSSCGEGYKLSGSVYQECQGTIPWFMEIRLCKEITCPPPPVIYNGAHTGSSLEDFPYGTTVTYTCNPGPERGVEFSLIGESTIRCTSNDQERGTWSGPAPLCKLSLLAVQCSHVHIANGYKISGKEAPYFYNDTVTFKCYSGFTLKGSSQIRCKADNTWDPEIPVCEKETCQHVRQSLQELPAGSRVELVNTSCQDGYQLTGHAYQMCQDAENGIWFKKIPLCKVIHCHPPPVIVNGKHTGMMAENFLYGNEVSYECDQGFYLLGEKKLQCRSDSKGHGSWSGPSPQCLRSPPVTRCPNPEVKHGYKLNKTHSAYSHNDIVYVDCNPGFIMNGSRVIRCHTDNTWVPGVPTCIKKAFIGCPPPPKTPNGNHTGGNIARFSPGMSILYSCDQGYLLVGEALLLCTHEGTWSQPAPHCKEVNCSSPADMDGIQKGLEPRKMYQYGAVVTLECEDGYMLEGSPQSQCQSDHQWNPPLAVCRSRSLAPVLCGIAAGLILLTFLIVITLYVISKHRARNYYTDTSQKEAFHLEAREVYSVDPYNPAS
Procedure: Fresh blood from a healthy donor was collected and maintained at room temperature for 2 hours. Then the blood was centrifuged at 2000 x g for about 10 min and the resulting supernatant was collected. Five mg of Zymosan A particles (Sigma Chemical Co., St. Louis, Mo.) were boiled for 30 min in 20 ml of 150 mM NaCl and washed three times in phosphate-buffered saline (PBS) to form activated Zymosan. One mg of activated Zymosan particles was admixed with 0.5 ml of blood supernatant and maintained at 37 C. for 30 min, and then was washed 3 times in PBS. The washed particles were then resuspended in PBS at a concentration of 0.5 mg/ml to form a C3 -coated Zymosan composition.
Cultures containing 10^5 Raji or HSB2 cells were admixed with varying amounts (zero to 200 ug) of the polypeptides shown in Table 2 in a volume of 100 microliters (ul) of culture medium and the admixture was maintained at 37C for 30 min to allow CR2 ligand polypeptides to bind any CR2 receptor present on the cells. Thereafter, 50 ul of C3 -coated Zymosan composition was added to each culture, the cultures were subjected to centrifugation for 1 min at 600×g and then maintained at 37 C. for 30 min. The maintained cultures were then washed with prewarmed culture medium to rinse off non-bound particles. Washed cultures were observed using a microscope to detect and count the number of particles (rosettes) attached per cell. More than 3 rosettes per cell was counted as C3 specific binding. Inhibition is expressed as the percent decrease in bound rosettes when comparing binding in the presence or absence of admixed polypeptide.

| Inhibition of direct binding of C3-coated Zymosan to cells (percent decrease in bound rosettes) | Substance |
| --- | --- |
| 70% | LYNVEAT [LYNVEAT] |
| 35% | NSGVEA [NSGVEA] |
| 0% | SRRGDMS [SRRGDMS] |
